Read-outs that look alike come from different tables or passages of the source.
How the values were obtained:
erythrocyte membrane = test: stabilising effect on the erythrocyte membrane (haemolysis in hypotonic medium and with heat); type: cell-based, rabbit
From the text: Nature (1970) 225, Mar. 21, 1150-1151.

hypermotility by ethanol = test: antagonism of the hypermotility caused by ethanol (Cott-Carlsson Engel Lindqvist test); type: in vivo, mouse; settings: for antagonism of ethanol hypermotility / sedative activity, ranking: mouse, per os, comparison in words
Experimental: The motility of the mice placed in the actimeter is recorded immediately after this injection, every 5 minutes, for 60 minutes. The percentage of variation of the motility of the mice treated with ethanol with respect to the controls receiving water is determined, and of mice treated with the product to be tested and with ethanol with respect to mice receiving only ethanol.

[1] = system: convulsions caused by pentetrazol; test: anti-convulsivant action on convulsions caused by pentetrazol; type: in vivo, mouse
Experimental: The compounds according to the invention also present an anti-convulsivant action on the convulsions caused in the mouse by pentetrazol: After administration of pentetrazol, the time of appearance of the convulsions and the time of appearance of death is measured, in the animals which previously received, by the intraperitoneal route, the product to be tested, comparatively to controls receiving only pentetrazol.

narcosis by ethanol = test: potentialization of narcosis by ethanol; type: in vivo; settings: mouse, oral route, comparison within the series
From the text: (§1) It is furthermore suitable for the manufacture of aqueous solutions.

[2] = mouse, in vivo, ip
[3] = system: muscle fatigued by application of lactic acid; test: test of the muscle fatigued by application of lactic acid; type: in vivo; settings: comparison within the series
From the text: as §1

in vivo = settings: mouse, ip
[4] = LD50 toxicity in the mouse (Table I; text); settings: for change of LD50 of the cation against the reference salt: expressed as cation
[5] = rectal temperature (hypothermia); type: in vivo; settings: rat
[6] = rabbit red cells in vitro, hypotonic medium pH 7.4, 53° C., read-out: ED50, stabilising effect on the erythrocyte membrane
[7] = LD50 expressed in Mg++ or Li+, intraperitoneal route

CC(=O)NCCCS(=O)(=O)O [Sodium acetylhomotaurinate, 3-acetylaminopropanesulfonate of sodium]
EC50 (erythrocyte membrane; [6]): 5 mM
antagonism of the hypermotility by ethanol, result (hypermotility by ethanol; 400 mg per os): slight antagonism which appears at the 50th minute of observation
antagonism of the hypermotility by ethanol, significance (hypermotility by ethanol; 400 mg per os): not significant
antagonism of the hypermotility by ethanol, result (hypermotility by ethanol; 400 mg per os, listed as Sodium acetyhomotaurinate): slight anta-
antagonism of ethanol hypermotility / sedative activity, ranking (hypermotility by ethanol): least active
time of appearance of death ([1]; 292 mg/kg i.p.): increase, without reaching the level of significance
time of appearance of the convulsions ([1]; 292 mg/kg i.p.): increase, without reaching the level of significance
potentialization of narcosis by ethanol (narcosis by ethanol): top of the series
LD50 [2]: greater than 5 g/kg

CC(=O)NCCCS(=O)(=O)O [Potassium acetylhomotaurinate, 3-acetylaminopropanesulfonate of potassium]
EC50 (erythrocyte membrane; [6]): 5 mM
time of appearance of death ([1]; 315 mg/kg i.p.): increase, without reaching the level of significance
time of appearance of the convulsions ([1]; 315 mg/kg i.p.): increase, without reaching the level of significance
activity in the test of the muscle fatigued by lactic acid [3]: the most active
LD50 [2]: 4120 mg/kg
LD50 expressed as cation [2]: 733 mg cation/kg

CC(=O)NCCS(=O)(=O)O [Magnesium acetyltaurinate, reference compound]
antagonism of the hypermotility by ethanol, result (hypermotility by ethanol; 100 mg per os): antagonism
antagonism of the hypermotility by ethanol, significance (hypermotility by ethanol; 100 mg per os): not significant
antagonism of the hypermotility by ethanol, result (hypermotility by ethanol; 200 mg per os): antagonism
antagonism of the hypermotility by ethanol, significance (hypermotility by ethanol; 200 mg per os): not significant
antagonism of the hypermotility by ethanol, result (hypermotility by ethanol; 400 mg per os): 0
time of appearance of the convulsions ([1]; 1000 mg/kg i.p.): significantly (xx)
time of appearance of death ([1]; 1000 mg/kg i.p., listed as Mg acetyltaurinate): significantly (xx)

CC(=O)NCCCS(=O)(=O)[O-].[Li+]
EC50 (erythrocyte membrane; Oryctolagus cuniculus, Erythrocyte, pH 7.4, read-out: ED50, stabilising effect on the erythrocyte membrane): 10 mM
LD50 (in vivo; LD50, male mouse): 4260 mg/kg
LD50 (in vivo; [7]): 157 mg/kg
change of LD50 of the cation against the reference salt ([4]; mouse, intraperitoneal route): significantly increased

CC(=O)NCCS(=O)(=O)[O-].[Na+] [Sodium acetyltaurinate, reference compound]
antagonism of the hypermotility by ethanol, result (hypermotility by ethanol; 400 mg per os): 0

CC(=O)NCCS(=O)(=O)O [Calcium acetyltaurinate, reference compound]
antagonism of the hypermotility by ethanol, result (hypermotility by ethanol; 80 mg per os): 0
antagonism of the hypermotility by ethanol, result (hypermotility by ethanol; 800 mg per os): antagonism
antagonism of the hypermotility by ethanol, significance (hypermotility by ethanol; 800 mg per os): x to xx according
time of appearance of death ([1]; 1000 mg/kg i.p., listed as Ca acetyltaurinate): significantly (x)
LD50 by oral route ([4]; oral route, footnote of Table I): 13090 mg/kg

CC(=O)NCCCS(=O)(=O)O [Calcium acetylhomotaurinate, calcium N-acetylhomotaurinate]
EC50 (erythrocyte membrane; [6]): 1 mM
ranking of hypothermic activity [5]: more active than that of magnesium
antagonism of the hypermotility by ethanol, result (hypermotility by ethanol; 80 mg per os): 0
antagonism of the hypermotility by ethanol, result (hypermotility by ethanol; 100 mg per os): antagonism
antagonism of the hypermotility by ethanol, significance (hypermotility by ethanol; 100 mg per os): xxx
antagonism of the hypermotility by ethanol, result (hypermotility by ethanol; 200 mg per os): antagonism
antagonism of the hypermotility by ethanol, significance (hypermotility by ethanol; 200 mg per os): xx
antagonism of the hypermotility by ethanol, result (hypermotility by ethanol; 200 mg per os, listed as calcium acetylhomotaurinate): significant antagonism
antagonism of the hypermotility by ethanol, result (hypermotility by ethanol; 400 mg per os): antagonism
antagonism of the hypermotility by ethanol, result (hypermotility by ethanol; 400 mg per os, listed as calcium acetylhomotaurinate): significant antagonism
antagonism of the hypermotility by ethanol, result (hypermotility by ethanol; 800 mg per os): antagonism
antagonism of the hypermotility by ethanol, significance (hypermotility by ethanol; 800 mg per os): xx (shorter)
antagonism of the hypermotility by ethanol, result (hypermotility by ethanol; 800 mg per os, listed as calcium acetylhomotaurinate): this effect is confirmed at the dose of 800 mg/kg but does not appear to be superior to that recorded at 400 mg
antagonism of ethanol hypermotility / sedative activity, ranking (hypermotility by ethanol; listed as Ca acetylhomotaurinate): greater than that of Mg acetylhomotaurinate
time of appearance of death ([1]; 400 mg/kg i.p.): significant antagonism (xx)
time of appearance of convulsions ([1]; 800 mg/kg i.p.): significant
time of appearance of death ([1]; 800 mg/kg i.p.): significant antagonism (xx)
time of appearance of the convulsions ([1]; 1000 mg/kg i.p.): very significant (xxx)
anti-convulsivant activity, comparison ([1]; mouse, i.p., in words): greater than that of Mg acetylhomotaurinate
LD50 [2]: 1870 mg/kg
LD50 expressed as cation [2]: 186 mg cation/kg

CC(=O)NCCCS(=O)(=O)O [Magnesium acetylhomotaurinate, magnesium N-acetylhomotaurinate]
EC50 (erythrocyte membrane; [6]): 10 mM
antagonism of the hypermotility by ethanol, result (hypermotility by ethanol; 80 mg per os): antagonism
antagonism of the hypermotility by ethanol, result (hypermotility by ethanol; 100 mg per os): antagonism
antagonism of the hypermotility by ethanol, significance (hypermotility by ethanol; 100 mg per os): not significant
antagonism of the hypermotility by ethanol, result (hypermotility by ethanol; 200 mg per os): antagonism
antagonism of the hypermotility by ethanol, result (hypermotility by ethanol; 200 mg per os, listed as magnesium acetylhomotaurinate): slightly less than that of the calcium salt
antagonism of the hypermotility by ethanol, result (hypermotility by ethanol; 400 mg per os): antagonism
antagonism of the hypermotility by ethanol, result (hypermotility by ethanol; 400 mg per os, listed as magnesium acetylhomotaurinate): slightly less than that of the calcium salt
time of appearance of convulsions ([1]; 800 mg/kg i.p.): significant
LD50 (in vivo; LD50, male mouse): 2570 mg/kg
LD50 (in vivo; [7]): 161 mg/kg
change of LD50 of the cation against the reference salt ([4]; mouse, intraperitoneal route): significantly increased

[Cl-].[Cl-].[Mg+2] [magnesium chloride, reference compound]
LD50 expressed in Mg++ or Li+ ([4]; mouse, intraperitoneal route): 94 mg

NCCCS(=O)(=O)O [Homotaurine, 3-aminopropanesulfonic acid]
EC50 (erythrocyte membrane; Oryctolagus cuniculus, Erythrocyte, pH 7.4, rabbit red cells in vitro, hypotonic medium pH 7.4, 53° C., read-out: ED50, stabilising effect on the erythrocyte membrane): 15 mM
effect on rectal temperature ([5]; homotaurine by intraperitoneal route): does not modify the rectal temperature

Reference: patent US4355043A, “Novel derivatives of 3-aminopropanesulfonic acid having a reinforced activity on membrane” (Les Laboratoires Meram, priority 1979, dated 1982)
